In brackets after ≈: the same amount, converted by molar mass. Bounds are passed on as bounds.

The subject of data set [1] is Staphylococcus aureus ATCC25923. The experiment in a line: Bacterial growth inhibition (MIC) test, microtiter plate, CLSI protocol. As to conditions: Staphylococcus aureus, ATCC25923; S. aureus 25923; 37° C., 24 hours; read-out: MIC. Type of data set: cell-based.
Data set [2] relates to Fusarium graminearum B4-5A. The experiment in a line: microbe, parasite or virus in culture. It is filed as cell-based. As to conditions: Fusarium graminearum, B45A, 48 h.
Data set [3] has as its system Candida albicans ATCC64124 (azole-resistant). The experiment in a line: microbe, parasite or virus in culture. Type of data set: cell-based. As to conditions: for MFC: ATCC64124; for MIC: ATCC64124, 48 h.
Data set [4] has as its system Candida albicans ATCC MYA-2876 (azole sensitive). The experiment in a line: Fungal MIC and MFC, microbroth dilution assay (M27-A3). It is filed as cell-based. As to conditions: C. albicans MYA2876 (azole sensitive); for MIC: RPMI 1640, 35° C., 48 hours; for MFC: subculture on Sabouraud dextrose agar after MIC test.
Data set [5] deals with azole-resistant Candida albicans ATCC 64124. As to the kind of experiment: Antifungal synergism by checkerboard analysis, K-compound and azole combinations. It is filed as cell-based. The settings on record: Candida albicans, compound alone.
For the next data set, the system named is HeLa cells. The experiment in a line: Cell viability assay (MTT), cytotoxicity test. It is filed as cell-based, human. As to conditions: for toxicity to human cervical cancer cell line HeLa: 1.0 to 1000 μg/mL; for toxicity to human cervical cancer cell line HeLa / Viable Cells Percentage Compared to Control: 48 h; for Viable Cells Percentage Compared to Control / effect on growth of cells (number of viable cells): HeLa; for Viable Cells Percentage Compared to Control: MTT; for effect on growth of cells (number of viable cells): wells treated with compound. Here is the method: HeLa cells were grown in commercial DMEM 1× (Gibco) with 10% fetal bovine serum (FBS, Gibco), 100 U/mL penicillin, and 100 μg/mL streptomycin at 37° C. and 5% CO2. The cells were allowed to adhere for 24 h before drug treatment.
The cells were seeded in 96-well microtiter plates (10,000/200 μL). After 24 h of incubation in the media, cells were treated with various concentrations of K608, K4608 and K408 (0.0, 1.0, 10.0, 100.0, 1000 μg/mL and Trition 1×) for 48 h. 20 μL of MTT stock solution (5 mg/mL) was added to each well and incubated for 4 h at 37° C. Upon completion of incubation, the media was carefully removed and washed twice with […] of pbs buffer. Then, 200 μL of DMSO was added to each well; agitated on orbital shaker for 15 min., and the absorbance at 570 nm with 670 nm filter was determined with a microplate reader (Synergy H4). The results are expressed as viability compared with that of control. The experiment was carried out in triplicate in three independent experiments.

The subject of data set [6] is Escherichia coli ATCC 25922. The experiment in a line: Bacterial growth inhibition (MIC) test, microtiter plate, CLSI protocol. Type of data set: cell-based. As to conditions: Escherichia coli, ATCC25922; E. coli 25922; Luria-Bertani medium, 37° C., 24 hours; read-out: MIC.

For the compound `CCCCCCCCOC1[C@@H](N)[C@@H](O)C(O[C@@H]2C(N)CC(N)C(O[C@H]3OC(CN)[C@@H](O)[C@H](O)C3O)[C@@H]2O)O[C@@H]1CO` (stereo partly drawn) [Compound K408], the MIC in data set [1] was found to be 125 µg/mL (≈ 209 µM); in data set [2], 31.3 µg/mL (≈ 52.5 µM); in data set [3], 9.8 µg/mL (≈ 16.4 µM); in data set [4], 1.2 µg/mL (≈ 2.01 µM); in data set [5] (ATCC64124, K408 checkerboard table, first of two separate experiments) it was 31.2 µg/mL; in data set [5] (ATCC64124, K408 checkerboard table, second of two separate experiments), 31.2 µg/mL. Moreover, the MFC in data set [3] was 9.8 µg/mL (≈ 16.4 µM); in data set [4], 2.4 µg/mL (≈ 4.02 µM). In the data set on HeLa cells, the “toxicity to human cervical cancer cell line HeLa” value is “not toxic”. For the same compound, the “Viable Cells Percentage Compared to Control” value is listed as 139.37% in the data set with HeLa cells (1 μg/mL), 156.92% in the data set on HeLa cells (10 μg/mL), 144.82% with HeLa cells (100 μg/mL) and 138.39% in the data set with HeLa cells (1000 μg/mL). Besides, the “effect on growth of cells (number of viable cells)” value in the data set on HeLa cells is reported as “promoted growth of cells”.
With `CCCCCCCCOC[C@H]1OC(O[C@@H]2C(N)CC(N)C(O[C@H]3OC(CN)[C@@H](O)[C@H](O)C3O)[C@@H]2O)[C@H](O)[C@H](N)C1OCCCCCCCC` (stereo partly drawn) [Compound K4608], the MIC in data set [6] is > 250 µg/mL; in data set [1] it was > 250 µg/mL; in data set [2], 15.6 µg/mL (≈ 22 µM); in data set [3], 4.9 to 9.8 µg/mL (≈ 6.91 to 13.8 µM); in data set [4], 1.2 to 2.4 µg/mL (≈ 1.69 to 3.39 µM); in data set [5] (ATCC64124, K4608 checkerboard table), 31.2 µg/mL. Besides, the figures for the MFC in data set [3] and in data set [4] were 9.8 µg/mL (≈ 13.8 µM) and 2.4 µg/mL (≈ 3.39 µM), respectively. For the same compound, the “toxicity to human cervical cancer cell line HeLa” value in the data set on HeLa cells is listed as “not toxic”. Further, the “Viable Cells Percentage Compared to Control” value was found to be 124.28% in the data set with HeLa cells (1 μg/mL), 149.52% in the data set on HeLa cells (10 μg/mL), 129.86% in the data set on HeLa cells (100 μg/mL) and 122.93% with HeLa cells (1000 μg/mL). In the data set on HeLa cells, the “effect on growth of cells (number of viable cells)” value is “promoted growth of cells”.
Consider `NC[C@H]1O[C@H](O[C@H]2[C@H](O)[C@@H](O[C@H]3O[C@H](CO)[C@@H](O)[C@H](N)[C@H]3O)[C@H](N)C[C@@H]2N)[C@H](O)[C@@H](O)[C@@H]1O` [Kanamycin, reference compound], for which the MIC is 1 to 4 µg/mL (≈ 2.06 to 8.26 µM) in data set [6]; 0.5 to 1 µg/mL (≈ 1.03 to 2.06 µM) in data set [1]; > 500 µg/mL in data set [2]; > 500 µg/mL in data set [3]; 250 to 500 µg/mL (≈ 516 to 1030 µM) in data set [4].

Usually MFC stands for the smallest concentration meeting the test's criterion for killing the fungus. A low value points to more potent killing.

Values taken from US20160060285A1, “Aminoglycosides, Methods of Synthesis, and Associated Applications” (UTAH STATE UNIVERSITY, priority 2010, published 2016).
